From patent publication US10428114B2, “Type polypeptide targeting tumours” (SICHUAN UNIVERSITY, priority 2015, dated 2019)
Values after ≈ are worked out from the molar mass of the structure shown. Bridges are numbered along the chain shown (N, C = ends). Where no end group is shown, it is not given here. [ ]: non-standard residue; d: D form. GABA = NCCCC(=O)O

Experiments:
4T1 tumours [1] = experiment: Evaluation of 4Abu linked RGD-AAN peptides with doxorubicin, 4T1 model; format: in vivo, Balb/c mice; conditions: doxorubicin 5 mg/kg with peptide
Protocol: (§1) The dose of doxorubicin was 5 mg/kg for all groups. Two groups were administrated with above-mentioned peptides, respectively.

4T1 tumours [2] = experiment: Pharmacodynamics of doxorubicin and its liposomes in 4T1 tumour model; format: in vivo, Balb/c mice; conditions: day 20
Protocol: (§3) Female Balb/c mice were inoculated with 5×10^5 4 T1 cells and randomly divided into 7 groups: saline group (NS), Dox group, PEG-Lipo-Dox group, iRGD-Lipo-Dox group, nRGD-Lipo-Dox group, Dox and nRGD coadministration group (Dox+nRGD), PEGylated liposome and nRGD coadministration group (PEG-Lipo-Dox+nRGD). The mice were injected with 5 mg/kg Dox equivalents of drugs or various formulations on day 8 and day 12. The single dose of the coadministration group included two shoots; one shoot was an equivalent drug or formulation of 5 mg/kg Dox, while the other shoot was 4.8 mg/kg nRGD. The volume and body weight of the mice were measured every two days. Some mice were sacrificed for mechanism and toxicity study on day 20. The average tumour growth inhibition (TGI) was calculated after tumour weighing: TGI=(1−(mean tumour weight of treatment group/(average tumour weight of control group))×100%. The antitumour effect and mechanism were studied by HE, immunohistochemistry, RT-PCR, immunofluorescence and ELISA. Plasma samples were collected for ELISA detection. Tissue samples were evaluated for toxicity by HE staining. The remaining mice were studied for survival time.

Raw 264.7 cells = experiment: Median lethal dose (IC50) against Raw 264.7 cells at 24 h; format: cell-based
Text: (§2) The targeting ability of nRGD was studied through in vitro and in vivo experiments by the inventors.

HUVEC = experiment: Median lethal dose (IC50) against HUVEC at 24 h; format: cell-based; conditions: n = 3
Text: as §2

4T1 cells = experiment: Median lethal dose (IC50) against 4T1 cells at 24 h; format: cell-based
Text: as §2

[3] = system: tumour vessels and tumour-associated macrophages (TAMs); experiment: In vivo targeting and tumour microenvironment study in 4T1 tumours (immunofluorescence, immunohistochemistry, RT-PCR, ELISA); parameters: species or system Balb/c mice
Protocol: as §3

4T1 tumours [4] = experiment: Evaluation of peptide-bond linked RGD-AAN peptides with doxorubicin, 4T1 model; format: in vivo, Balb/c mice; conditions: doxorubicin 5 mg/kg with peptide
Protocol: as §1

[5] = system: CoCl2-treated 4T1 and M2 type macrophages, HUVEC, untreated 4T1 cells; experiment: Cell uptake experiments; format: cell-based; conditions: HUVEC with low legumain expression and untreated 4T1 cells
Text: as §2

4T1 tumours [6] = experiment: Pharmacodynamics of paclitaxel and its albumin nanoparticles with nRGD, 4T1 tumour model; format: in vivo
Protocol: The mice were injected with 10 mg/kg PTX equivalents of drugs or various formulations on day 8, day 12 and day 16.

4T1 tumours [7] = experiment: Pharmacological effects of lycobetaine and its nanostructured lipid carriers with nRGD, 4T1 tumour model; format: in vivo
Protocol: Normal saline group (N. S), IBT group, lycobetaine nanostructured lipid carriers group (IBT-NLC), lycobetaine and nRGD coadministration group (IBT+nRGD), and lycobetaine nanostructured lipid carriers and nRGD coadministration group (IBT-NLC+nRGD). The mice were injected with 12 mg/kg IBT equivalents of drugs or various formulations on day 8, day 9 and day 10.

4T1 tumours [8] = experiment: Pharmacological effects of docetaxel and its micells with nRGD, 4T1 tumour model; format: in vivo
Protocol: Female Balb/c mice were inoculated with 5×10^5 4T1 cells and randomly divided into 5 groups: normal saline group (N. S), TXT group, docetaxel micells group (TXT-micells), docetaxel and nRGD coadministration group (TXT+nRGD), and docetaxel micells and nRGD coadministration group (TXT-micells+nRGD). The mice were injected with 15 mg/kg TXT equivalents of drugs or various formulations on day 8, day 10 and day 12.

glioma = experiment: Glioma model survival; format: in vivo, mice; conditions: lycobetaine and octreotide liposomes, peptide as a mixture or on the liposome surface
Text: Mice having glioma were randomly divided into 9 groups, 20 mice each: normal saline group (N.S), teniposide group, free lycobetaine and octreotide group (free IBT & OCT), lycobetaine and octreotide PEGylated liposomes group (PEG-Liposome), liposomes and iRGD coadministration group (PEG-Liposome+iRGD), liposomes and nRGD coadministration group (PEG-Liposome+nRGD), iRGD modified lycobetaine and octreotide PEGylated liposomes (iRGD-Liposome), nRGD modified lycobetaine and octreotide PEGylated liposomes (nRGD-Liposome), liposomes and nRGD coadministration group (blank). The mice were injected with 10 mg/kg IBT and […] OCT equivalents of drugs or various formulations on day 5, day 7, day 9, day 11 and day 12. As positive control group, mice were injected with 10 mg/kg teniposide on day 5, day 7, day 9, day 11 and day 12. […] The survival of the mice was recorded daily and the survival curve was plotted.

4T1 tumours [9] = experiment: Screening of the administration manner of nRGD with doxorubicin, 4T1 model; format: in vivo, Balb/c mice; conditions: nRGD in combination with, prior to or after doxorubicin
Protocol: Female Balb/c mice were inoculated with 5×10^5 4 T1 cells and randomly divided into 3 groups. nRGD was administered in combination with doxorubicin, nRGD was administered prior to doxorubicin or after doxorubicin.

4T1 tumours [10] = experiment: Screening of the working concentration of nRGD with doxorubicin, 4T1 model; format: in vivo, Balb/c mice; conditions: doxorubicin 5 mg/kg; nRGD 1, 2, 4, 8, 10 mg/kg
Protocol: The dose of doxorubicin was 5 mg/kg, while the nRGD concentration was 1, 2, 4, 8, 10 mg/kg, respectively.

[11] = mouse, in vivo
legumain = target: T1, legumain (UniProt O89017 18-325, limits assumed); experiment: cell-based or functional assay
T1 sequence (looked up): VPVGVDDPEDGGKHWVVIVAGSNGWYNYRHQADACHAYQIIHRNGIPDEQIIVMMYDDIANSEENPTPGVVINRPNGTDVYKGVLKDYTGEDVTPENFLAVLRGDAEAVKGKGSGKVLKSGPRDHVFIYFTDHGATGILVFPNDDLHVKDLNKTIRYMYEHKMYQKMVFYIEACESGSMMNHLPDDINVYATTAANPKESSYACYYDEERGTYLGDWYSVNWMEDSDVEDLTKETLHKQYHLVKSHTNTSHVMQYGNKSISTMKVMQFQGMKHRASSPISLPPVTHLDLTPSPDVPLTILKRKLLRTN

Molecule: CRGD-4Abu-NAA (CRGD[GABA]NAA)
- efficacy of doxorubicin (4T1 tumours [1]): can improve the efficacy of doxorubicin

Molecule: COc1cccc2c1C(=O)c1c(O)c3c(c(O)c1C2=O)C[C@@](O)(C(=O)CO)C[C@@H]3O[C@H]1C[C@H](N)[C@H](O)[C@H](C)O1 [Dox, doxorubicin]
- tumour weight (4T1 tumours [2]; 5 mg/kg Dox equivalents on day 8 and day 12, coadministration with 4.8 mg/kg nRGD): 1592.0 ± 98.0 mg
- tumour growth inhibition rate (TGI) (4T1 tumours [2]; from tumour weight versus control group): 26.3%
- IC50 Dox, Raw264.7 IL-4 (Raw 264.7 cells; n = 3, IL-4 stimulated): 0.36 ± 0.07 mg/L (≈ 0.662 µM)
- IC50 Dox, Raw264.7 LPS (Raw 264.7 cells; n = 3, LPS stimulated): 0.81 ± 0.22 mg/L (≈ 1.49 µM)
- IC50 Dox, Raw264.7 Control (Raw 264.7 cells; n = 3, untreated cells): 0.41 ± 0.08 mg/L (≈ 0.754 µM)
- IC50 Dox, HUVEC (HUVEC): 18.12 ± 6.13 mg/L (≈ 33.3 µM)
- IC50 Dox, 4T1 CoCl2 (4T1 cells; n = 3, CoCl2 stimulated): 16.54 ± 2.57 mg/L (≈ 30.4 µM)
- IC50 Dox, 4T1 control (4T1 cells; n = 3, untreated cells): 26.56 ± 1.96 mg/L (≈ 48.9 µM)
- number of regulatory T cells and MDSCs at the tumour sites ([3]; mouse, in vivo): increased

Molecule: CRGDNAA (not fully specified (residue 4))
- efficacy of doxorubicin (4T1 tumours [4]): can improve the efficacy of doxorubicin

Molecule: c(RGDfK)AAN (cyclo(RGD[dF]KAAN); also: attachment point of AAN on cyclic RGDfK not given here)
- efficacy of doxorubicin (4T1 tumours [4]): can improve the efficacy of doxorubicin

Molecule: c(RGDfK)-4Abu-AAN (cyclo(RGD[dF]K[GABA]AAN); not fully specified)
- efficacy of doxorubicin (4T1 tumours [1]): can improve the efficacy of doxorubicin

Molecule: CCRGDK(NAA)GPDC (CCRGDKGPDC) [nRGD]
- cell uptake [5]: significantly reduced compared to iRGD
- accumulation of Dox in the tumour site ([3]; tumour sections): increased the accumulation of Dox in the tumour site
- anti-tumour efficacy (4T1 tumours [6]; 10 mg/kg PTX equivalents day 8, 12, 16 with 4.8 mg/kg nRGD): increased the anti-tumour efficacy of PTX and PTX-BSA
- body weight and toxicity (4T1 tumours [6]; mouse, in vivo): did not reduce the body weight of the mice or increase the toxicity
- anti-tumour efficacy (4T1 tumours [7]; 12 mg/kg IBT equivalents day 8, 9, 10 with 4.8 mg/kg nRGD): increased the anti-tumour efficacy of PTX and PTX-BSA
- body weight and toxicity (4T1 tumours [7]; mouse, in vivo): did not reduce the body weight of the mice or increase the toxicity
- anti-tumour efficacy (4T1 tumours [8]; 15 mg/kg TXT equivalents day 8, 10, 12 with 4.8 mg/kg nRGD): increased the anti-tumour efficacy of TXT and TXT-micells
- body weight and toxicity (4T1 tumours [8]; mouse, in vivo): did not reduce the body weight of the mice or increase the toxicity
- life period (glioma): longer life period than the iRGD group
- anti-tumour effects of different manners of administration (4T1 tumours [9]): no significant differences
- Dox antitumour efficacy versus nRGD concentration (4T1 tumours [10]): positively correlated with Dox antitumour efficacy
- weight of mice [11]: did not reduce the weight of mice

B1: nRGD polypeptide CCRGDK(NAA)GPDC, coupled to the surface of doxorubicin liposomes (nRGD-Lipo-Dox) (peptide)
peptide: CCRGDKGPDC
modifications: disulfide 2-10; not fully specified (residue 6); printed as CCRGDK(NAA)GPDC; also: coupled to Mal-PEG2000-DSPE liposome via cysteine
- Median lethal dose (IC50) of Dox, 4T1 cells stimulated with CoCl2, 24 h (legumain): 37.9 mg/L
- Median lethal dose (IC50) of Dox, Raw264.7 cells stimulated with IL-4, 24 h (legumain): 23.5 mg/L
